Measured values published in PubChem BioAssay (NCI).
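Cells were grown in 96-well plates and exposed to each compound for 48 hours at five concentrations; endpoints were interpolated linearly between bracketing concentrations, or set to the highest concentration if not reached. GI50 is the concentration that inhibits growth by half. TGI: total growth inhibition.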

Key:
Assay in all cases: NCI tumour cell line growth inhibition, 48 h
[1] = system: SK-OV-3 ovarian
[2] = system: RXF 393 renal
[3] = system: EKVX NSCLC
[4] = system: KM12 colon
[5] = system: ACHN renal
[6] = system: NCI-H460 lung
[7] = system: HT29 colon
[8] = system: MDA-MB-435
[9] = system: OVCAR-5 ovarian
[10] = system: UACC-257 melanoma
[11] = system: SR leukemia

| SMILES | TGI [1] [µM] | TGI [2] [µM] | TGI [3] [µM] | TGI [4] [µM] | TGI [5] [µM] | TGI [6] [µM] | TGI [7] [µM] | TGI [8] [µM] | TGI [9] [µM] | TGI [10] [µM] | TGI [11] [µM] | GI50 [10] [µM] |
| --- | --- | --- | --- | --- | --- | --- | --- | --- | --- | --- | --- | --- |
| CC(C)=CCC/C(C)=C/Cc1cc(/C=C/c2cc(O)c(CC=C(C)C)c(O)c2)cc(O)c1O | 21.5 | 8.65 | 7.46 | 14.7 | 3.19 | 9.2 | 13.6 | 12.2 | 15.4 | 5.2 | – | – |
| CC1CN=C(NCc2ccccc2)S1 (centres undefined) | > 100 | > 100 | > 100 | > 100 | > 100 | > 100 | > 100 | > 100 | > 100 | > 100 | > 100 | – |
| CCOC(=O)[C@H]1C[C@@H](C(=O)c2ccccc2)N2N=C(c3ccc(Br)cc3)C=C[C@H]12 | > 100 | > 100 | – | > 100 | > 100 | > 100 | – | > 100 | > 100 | > 100 | > 100 | – |
| CSc1nc(=S)[nH]c2n[nH]c(C)c12 | > 100 | > 100 | > 100 | > 100 | – | > 100 | > 100 | > 100 | > 100 | > 100 | > 100 | – |
| N[C@@H]1C[C@H](N)c2c(Cl)sc(Cl)c21 | – | > 100 | > 100 | > 100 | > 100 | > 100 | – | > 100 | > 100 | > 100 | > 100 | – |
| CCC(=O)N(c1ccccc1)C(C)CN1CCC(O)(c2ccccc2)CC1 (centres undefined) | > 100 | > 100 | > 100 | – | > 100 | – | > 100 | > 100 | > 100 | > 100 | > 100 | – |
| CCOC(=O)CCc1c(C(=O)OCC)[nH]c(/C=C2/NC(=O)C(C)=C2CC)c1C | > 100 | 30.3 | – | 23.9 | 60.9 | > 100 | 39.9 | 19.7 | > 100 | 25.3 | 20.4 | – |
| Cc1ccc(-c2c(C#N)c(-c3ccc(N(C)C)cc3)c(C#N)c(=O)n2NS(=O)(=O)c2ccccc2)cc1 | > 100 | 68.1 | > 100 | > 100 | > 100 | > 100 | > 100 | > 100 | > 100 | > 100 | – | – |
| O=c1cc(-c2ccc(O)c(O)c2)oc2cc(OC3OC(CO)C(O)C(O)C3O)cc(O)c12 (centres undefined) | > 100 | > 100 | > 100 | > 100 | > 100 | > 100 | > 100 | > 100 | > 100 | > 100 | > 100 | – |
| Cc1sc2ncnc(NCCc3ccccc3)c2c1C | 73.4 | 34.1 | 13.9 | 29.6 | 69.2 | 23.9 | 45.3 | 34.6 | 35.8 | 17.3 | 26.6 | – |
| CN(C)c1ccc(C2CC(=O)CC(c3ccc(N(C)C)cc3)C23C(=O)NC(=O)NC3=O)cc1 (centres undefined) | – | > 25 | > 25 | > 25 | > 25 | > 25 | > 25 | > 25 | > 25 | > 25 | > 25 | – |
| COc1ccc(NS(=O)CCc2ccccc2)cc1 (centres undefined) | – | > 100 | > 100 | > 100 | > 100 | > 100 | > 100 | > 100 | > 100 | > 100 | > 100 | – |
| COC(=O)n1c(=O)nc2c3c(ncn21)Oc1c(c(-c2ccccc2)nn1-c1ccccc1)C3c1ccc(Cl)cc1 (centres undefined) | 12.1 | 2.98 | – | 2.66 | 3.21 | 3.09 | 2.9 | 3.02 | 2.58 | 3.76 | 4.31 | – |
| O=c1c2cc(I)ccc2nc(-c2cccs2)n1Nc1ccccc1 | 74.4 | > 100 | 58.4 | > 100 | > 100 | > 100 | > 100 | > 100 | > 100 | > 100 | > 100 | 32.3 |
| C1CSCC2(COC2)CS1 | > 100 | > 100 | – | > 100 | > 100 | > 100 | > 100 | > 100 | – | > 100 | > 100 | – |
| CN(C)c1ccc(C(C#N)N2CCCN(C(C#N)c3ccc(N(C)C)cc3)C2c2ccc(N(C)C)cc2)cc1 (centres undefined) | > 100 | > 100 | > 100 | > 100 | > 100 | – | > 100 | > 100 | > 100 | > 100 | > 100 | – |
| O=C(CNC(=O)OCc1ccccc1)NCCCCC(NC(=O)OCc1ccccc1)C(=O)O (centres undefined) | > 100 | > 100 | > 100 | > 100 | > 100 | > 100 | > 100 | > 100 | > 100 | > 100 | > 100 | – |
| CC(=O)c1c2c(cc3c1CC1(Cc4cc5c(cc4C1)CCC5)C3)CCC2 | > 100 | > 100 | > 100 | – | > 100 | > 100 | > 100 | > 100 | > 100 | > 100 | > 100 | – |
| CC(C#N)Nc1ccc(Oc2ccc(C(C)(C)c3ccc(Oc4ccc(NC(C)C#N)cc4)cc3)cc2)cc1 (centres undefined) | > 100 | > 100 | > 100 | > 100 | > 100 | > 100 | > 100 | > 100 | > 100 | > 100 | – | – |
| CC(=NNC(=S)Nc1ccccc1C)c1cccc(C(C)=NNC(=S)Nc2ccccc2C)n1 | > 100 | > 100 | > 100 | > 100 | 59.8 | > 100 | > 100 | > 100 | > 100 | > 100 | 12 | – |
| CCOc1ccc(C2c3[nH]c4ccccc4c3CCN2C(=O)c2cccs2)cc1 (centres undefined) | > 100 | > 100 | > 100 | > 100 | > 100 | 32.8 | > 100 | > 100 | > 100 | > 100 | > 100 | – |
